Measured values from publication PMC10491607, “Structural insight into the substrate recognition and transport mechanism of amino acid transporter complex ACE2-B^0AT1 and ACE2-SIT1” (Cell Discovery, 2023).

Assays:
ACE2-B^0AT1 complex [1] = molecular target: T1, ACE2-B^0AT1 complex (Homo sapiens, UniProt Q695T7); experiment: cryo-EM structure of the complex, […] A; type: binding; settings: central substrate site between TM1 and TM6
T1 construct: gene SLC6A19; purified complex for cryo-EM; with Angiotensin-converting enzyme 2
T1 sequence (Q695T7 whole entry): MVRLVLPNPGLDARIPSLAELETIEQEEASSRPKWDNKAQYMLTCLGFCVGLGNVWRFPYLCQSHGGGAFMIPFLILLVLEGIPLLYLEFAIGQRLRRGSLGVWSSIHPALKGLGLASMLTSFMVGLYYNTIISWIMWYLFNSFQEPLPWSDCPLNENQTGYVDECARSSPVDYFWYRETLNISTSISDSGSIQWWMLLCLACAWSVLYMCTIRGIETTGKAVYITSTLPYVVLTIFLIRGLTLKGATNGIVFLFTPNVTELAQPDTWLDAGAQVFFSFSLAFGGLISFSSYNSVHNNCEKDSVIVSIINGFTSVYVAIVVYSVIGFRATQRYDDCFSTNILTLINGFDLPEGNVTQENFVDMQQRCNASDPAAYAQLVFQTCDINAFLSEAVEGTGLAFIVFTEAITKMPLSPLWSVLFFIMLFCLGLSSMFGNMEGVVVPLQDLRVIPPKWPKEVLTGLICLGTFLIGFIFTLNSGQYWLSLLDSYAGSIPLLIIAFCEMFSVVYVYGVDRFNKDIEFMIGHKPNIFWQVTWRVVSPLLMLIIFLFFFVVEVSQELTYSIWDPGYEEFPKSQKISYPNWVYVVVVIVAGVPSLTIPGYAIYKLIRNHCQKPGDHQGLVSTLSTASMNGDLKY
T1 sequence (Q9BYF1 18-805 partner): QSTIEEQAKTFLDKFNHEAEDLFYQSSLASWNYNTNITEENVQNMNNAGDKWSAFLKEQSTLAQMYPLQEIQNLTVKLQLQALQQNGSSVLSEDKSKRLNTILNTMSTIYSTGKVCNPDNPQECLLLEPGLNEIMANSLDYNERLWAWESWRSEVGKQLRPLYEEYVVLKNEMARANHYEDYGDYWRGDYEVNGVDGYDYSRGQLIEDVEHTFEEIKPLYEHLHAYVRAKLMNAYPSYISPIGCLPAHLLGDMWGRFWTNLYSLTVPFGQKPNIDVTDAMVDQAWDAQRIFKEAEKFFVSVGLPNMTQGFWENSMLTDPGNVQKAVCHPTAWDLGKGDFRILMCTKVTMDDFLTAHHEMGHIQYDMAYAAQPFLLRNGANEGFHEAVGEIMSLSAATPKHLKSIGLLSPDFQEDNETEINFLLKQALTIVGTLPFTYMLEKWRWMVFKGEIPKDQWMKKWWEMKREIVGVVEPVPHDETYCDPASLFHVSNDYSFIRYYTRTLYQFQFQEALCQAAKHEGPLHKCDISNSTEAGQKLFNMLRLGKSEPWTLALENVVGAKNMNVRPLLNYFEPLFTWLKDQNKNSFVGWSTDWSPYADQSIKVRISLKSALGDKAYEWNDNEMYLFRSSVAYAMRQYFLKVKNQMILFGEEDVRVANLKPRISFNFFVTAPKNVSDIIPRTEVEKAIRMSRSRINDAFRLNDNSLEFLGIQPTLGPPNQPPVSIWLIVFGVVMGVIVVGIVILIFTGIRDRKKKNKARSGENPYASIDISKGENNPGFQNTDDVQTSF

ACE2-B^0AT1 complex [2] = molecular target: T1, ACE2-B^0AT1 complex; experiment: cryo-EM structure of the complex, […] A; type: binding; settings: central substrate site between TM1 and TM6; remark: listed apart in the source
ACE2-SIT1 complex [3] = molecular target: T2, ACE2-SIT1 complex (Homo sapiens, UniProt Q9NP91, Q247A); experiment: Pro-induced transport current in HEK293T cells co-expressing SIT1 and ACE2; type: cell-based
T2 construct: gene SLC6A20; co-expressed in HEK293T cells for currents; purified complex for cryo-EM (two protomers, each ACE2 plus SIT1); with Angiotensin-converting enzyme 2
T2 sequence (Q9NP91 whole entry Q247A): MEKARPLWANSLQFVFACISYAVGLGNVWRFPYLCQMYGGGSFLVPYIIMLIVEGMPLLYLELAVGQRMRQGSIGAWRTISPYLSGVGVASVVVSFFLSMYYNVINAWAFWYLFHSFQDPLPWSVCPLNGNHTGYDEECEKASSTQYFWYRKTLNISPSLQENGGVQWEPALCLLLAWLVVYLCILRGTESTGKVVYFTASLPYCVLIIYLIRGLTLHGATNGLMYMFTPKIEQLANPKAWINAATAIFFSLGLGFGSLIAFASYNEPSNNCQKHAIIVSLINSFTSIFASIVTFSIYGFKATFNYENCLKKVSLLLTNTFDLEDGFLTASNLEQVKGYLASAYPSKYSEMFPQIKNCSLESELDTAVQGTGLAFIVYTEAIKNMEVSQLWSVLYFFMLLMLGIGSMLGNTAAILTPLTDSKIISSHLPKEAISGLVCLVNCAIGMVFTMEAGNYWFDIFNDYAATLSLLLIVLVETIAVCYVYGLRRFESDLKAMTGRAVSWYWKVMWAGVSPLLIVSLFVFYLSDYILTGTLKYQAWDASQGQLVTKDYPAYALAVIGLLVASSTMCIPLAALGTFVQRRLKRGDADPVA
T2 sequence (Q9BYF1 18-805 partner): as the sequence (Q9BYF1 18-805 partner) above

ACE2-SIT1 complex [4] = molecular target: T3, ACE2-SIT1 complex (Homo sapiens, UniProt Q9NP91); experiment: as above; type: cell-based
T3 construct: gene SLC6A20; co-expressed in HEK293T cells for currents; purified complex for cryo-EM (two protomers, each ACE2 plus SIT1); with Angiotensin-converting enzyme 2
T3 sequence (Q9NP91 whole entry): as the sequence (Q9NP91 whole entry Q247A) above, with A247Q counted along it
T3 sequence (Q9BYF1 18-805 partner): as the sequence (Q9BYF1 18-805 partner) above

With `NC(=O)CC[C@H](N)C(=O)O` [Gln] the “cryo-EM structure of the complex, 3.2 A” value (ACE2-B^0AT1 complex [1]) was “ACE2-B^0AT1 complex bound to its native substrates Gln and Met are determined”.

With `CSCC[C@H](N)C(=O)O` [Met] the “cryo-EM structure of the complex, 3.1 A” value (ACE2-B^0AT1 complex [2]) was “ACE2-B^0AT1 complex bound to its native substrates Gln and Met are determined”.

With `O=C(O)[C@@H]1CCCN1` [Pro] the EC50 (ACE2-SIT1 complex [3]) was about 70 µM and the EC50 (ACE2-SIT1 complex [4]) was about 2510 µM.
